In ChEMBL document CHEMBL3881522, “Interaction inhibitors of TCF-4 with Beta-catenin” (2004):
Activity calls are given as the source filed them. No cut-off for these calls is given here.

Target: TCF4/beta-catenin (Homo sapiens) (UniProt P35222+Q9NQB0)
Assay: Inhibition of TCF-4 ( 1 to 56 residues) (unknown origin) binding to beta-catenin/armadillo (unknown origin) at 50 uM by ITC assay
Assay type: protein-complex assay

SMILES	inhibition
Cc1ccc(C(=O)N2CCN(C(c3ccccc3)c3ccccc3)CC2)s1	Active
Cc1ccc(/C(=N\NC(=O)c2ccccc2Oc2ccccc2)c2ccccc2)s1	Active
Cc1cc(CNC(=O)/C=C2\C(=O)N(c3ccncc3)c3ccccc32)on1	Active
Cc1ccc(CNC(=O)/C=C2\C(=O)N(c3ccncc3)c3ccccc32)o1	Active
Cc1ccc(/C=N/N=C2\C(=O)N(c3ccncc3)c3ccccc32)o1	Active
C/C(=N\NC(=O)COc1ccccc1)c1ccc(C)s1	Active
O=C(Nc1nnc(Br)o1)c1c(O)cc(-c2ccccc2)oc1=O	Active
O=S(=O)(c1ccc(OCc2cnc(Cl)s2)cc1)N1CCOCC1	Active
O=C(c1ccc(Br)o1)N1CCN(C(c2ccccc2)c2ccccc2)CC1	Active
Cc1ccc(/C(=N\NC(=O)c2ccccc2Nc2ccccc2)c2ccccc2)o1	Active
O=C(c1ccncc1)N1CCC(=Cc2ccccc2OCc2ccc(Br)o2)CC1	Active
CS(=O)(=O)N(CCCCOc1ccccc1)c1nc2c(s1)CCc1ccccc1-2	Active
Oc1nnc(CCCc2ccc(Oc3ccccc3)cc2)o1	Active
Cc1cc(/C(=C\c2ccccc2)c2ccc(OCCN3CCCC3)cc2)on1	Active
Cc1ccc(/C=N/n2c(=O)n(-c3ccncc3)c(=O)c3ccccc32)o1	Active
Cc1cc(NC(=O)NC(=O)c2nnc(-c3ccccc3)o2)no1	Active
CS(=O)(=O)N(CCOCCc1ccccc1)c1nc2c([nH]1)CCc1ccccc1-2	Active
Cc1ccc(/C=N/c2cccc3c(-c4ccncc4)ccnc23)o1	Active
Cc1ccc(COc2ccccc2C=C2CCN(S(=O)(=O)c3ccncc3)CC2)o1	Active
Nc1n[nH]c(CC2CN(c3ccc(N4CCNCC4)c(Cl)c3)C(=O)N2)n1 (centres undefined)	Active

SMILES	inhibition
O=c1oc(-c2ccccc2)cc(O)c1/C=C/c1nnc(Br)o1	Active
Cc1ccc(CCc2ccc3[nH]c(-c4ccco4)cc3c2)o1	Active
C/C(=N\NC(=O)OCc1ccccc1)c1cc(C)cs1	Active
Cc1ccc(/C(=N\NC(=O)c2ccccc2Oc2ccccc2)c2ccccn2)o1	Active
Cc1ccc(/C=C/c2ccc3[nH]c(-c4ccco4)cc3c2)o1	Active
Cc1ccc(/C=N/Nc2cc(C(=O)NCCc3ccccc3)cc3c2CCc2ccncc2-3)o1	Active
Cc1cc(NC(=O)c2c(O)cc(Oc3ccccc3)oc2=O)on1	Active
COc1cccc2c1CCc1sc(N(CCOC(C)CCc3ccccc3)C(C)=O)nc1-2 (centres undefined)	Active
Nc1n[nH]c(CC2CN(c3ccc(N4CCOCC4)c(F)c3)C(=O)O2)n1 (centres undefined)	Active
Cc1ccc(/C=N/NC(=O)c2ccccc2Oc2ccccc2)o1	Active
Cc1ccc(Nc2cccc(-c3ccccc3Oc3ccccc3)c2)o1	Active
O=C(CCNS(=O)(=O)c1ccccc1)NNS(=O)(=O)Cc1ccc(Cl)s1	Active
Cc1ccc(NC(=O)c2c(O)cc(-c3ccccc3)oc2=O)o1	Active
Cc1ccc(CCc2ccc3[nH]c(-c4cccs4)cc3c2)o1	Active
Cc1cc(-c2onc(C)c2COC(=O)Nc2ccccc2)no1	Active
Cc1nnc(-c2sc3nc(-c4ccc(Cl)cc4)nn3c2C)o1	Active
CC(=O)N(CCCC(C)c1ccccc1)c1nc2c(s1)CCc1ccccc1-2 (centres undefined)	Active
Cc1cc(NC(=O)c2ccc(Oc3ccccc3)cc2)on1	Active
Cc1ccc(-c2ccc3ccc(Oc4ccncc4)cc3c2)o1	Active
